GI50 and TGI data for 21 compounds are collected here from PubChem BioAssay (NCI).

Each structure is given as a SMILES string. Values joined by “and” are separate entries in the source; they are usually repeats but may differ in a detail not shown here. Equal entries are not always repeated.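 1) Cells in 96-well plates. 2) Compound, 48 h, 5 concentrations. 3) Linear interpolation between surrounding doses. 4) Unreached endpoint = highest concentration. At the GI50, growth is halved. TGI: concentration producing complete growth inhibition.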 Some results are limits rather than exact numbers.

What all share (experiment): NCI anticancer screen, dose series, 48 h
The test system of test [1] is IGROV1 ovarian.
For test [2], the system named is HL-60(TB) leukemia.
The test system of test [3] is HOP-62 NSCLC.
For test [4], the system named is A549 NSCLC.
Test [5] deals with KM12 colon.
Test [6] deals with EKVX NSCLC.
Test [7] has as its system SW-620 colon.
Test [8] concerns MDA-MB-435.
Test [9] deals with A498 renal.
Test [10] has as its system SF-295 CNS.

On to `CCOC(=O)C1=C(c2ccccc2)N(c2ccc(OC)cc2)[C@]2(C#N)C(O)=C(Cl)C(Cl)=C(O)[C@]12C#N`, for which the GI50 was 21.7 µM in [1]; 24.5 µM in test [2]; 20.9 µM in test [3]; 69.1 µM in test [4]; 18.3 µM in test [5]; 40.1 µM in test [6]. Further, the GI50 was 20.2 µM in test [7], 18.8 µM in test [8], 35.8 µM in test [9] and 25.9 µM in [10]. The TGI in [1] was 48.6 µM; in test [2] it was 50.1 µM; in test [3], 40.1 µM; in test [4] it was over 100 µM; in [5], 36.5 µM; in [6], over 100 µM. In addition, the TGI in [7] was 38.4 µM; in test [8], 37.1 µM; in [9] it was over 100 µM; in [10], 76.7 µM.

With `COc1ccc(C(=O)CC(c2ccc(OC)c(OC)c2)c2c(O)c3ccccc3oc2=O)cc1OC` (stereo not given), the TGI in test [1], in test [2], in test [3], in test [4], in [5] and in [6] was over 100 µM in each case. Also, the TGI in test [7], in test [8] and in test [10] was over 100 µM throughout.

Regarding `CC(C)=CC1CC(C)C2(CCC3(C)CC4C(C(=O)CC4(C)O)/C(C=O)=C\CC32)O1` (stereo not given), the TGI amounted to 0.296 µM in test [1]; 0.0576 µM in test [2]; 0.274 µM in test [3]; 0.215 µM in [4]; 0.262 µM in test [5]; 0.346 µM in [6]. Further, the TGI was found to be 0.197 µM in test [8], 0.979 µM in test [9] and 0.515 µM in test [10].

For `N/C(=N\c1nc2ccccc2s1)NC(=O)Nc1cccc2ccccc12`, the GI50 in test [1] was 0.371 µM; in test [2], 0.283 µM; in [3] it was 0.406 µM; in test [4], 0.436 µM; in test [6] it was 0.462 µM; in [7], 0.26 µM. For the same compound, the GI50 is 0.0321 µM in test [8], 0.347 µM in test [9] and 0.173 µM in [10]. Also, the TGI in [1] is over 100 µM; in [2] it was 0.968 µM; in test [4], over 100 µM; in [6], over 100 µM; in test [7], over 100 µM; in test [8], 0.143 µM. Further, the TGI in test [9] is 3.72 µM; in test [10], 1.83 µM.

As for `CN1C(=O)C(c2c[nH]c3ccccc23)=C(c2c(-c3c[nH]c4ccccc34)[nH]c3ccccc23)C1=O`, the GI50 in [1] is 9.53 µM; in test [2], 2.41 µM; in test [3] it was 2.1 µM; in test [4], 3.83 µM; in test [5] it was 2.13 µM; in test [8], 1.71 µM. For the same compound, the GI50 in test [9] was 1.89 µM; in test [10], 1.93 µM. Besides, the TGI in [1] was over 100 µM; in test [2] it was 8.21 µM; in test [3] it was 11.9 µM; in [4] it was 13.9 µM; in test [5], 7.61 µM; in test [8] it was 4.11 µM. Besides, the results for the TGI in test [9] and in test [10] were 8.12 µM and 4.27 µM, respectively.

`COc1ccccc1NC(=O)C1=C(C)NC(C)=C(C(=O)Nc2ccccc2OC)C1c1cccc2c1OCO2`: the TGI in [1], in test [2], in test [3], in test [4], in [5] and in [6] was over 100 µM each time. Further, the TGI in test [7], in test [9] and in test [10] was over 100 µM throughout.

For the compound `OCc1ccc(Oc2c3ccccc3nc3occc23)cc1`, the GI50 in test [1] is 45.6 µM; in test [2], 27.2 µM; in test [3], 30.4 µM; in test [4], 36.5 µM; in [5] it was 17.8 µM; in test [8], 15.5 µM. In test [10], the GI50 is 15.5 µM. Also, the TGI in test [1] was over 100 µM; in test [2], 79.6 µM; in test [3] it was over 100 µM; in test [4], over 100 µM; in test [5], 37.8 µM; in test [8] it was 38.2 µM. In addition, the TGI in test [10] turned out to be 35.9 µM.

On to `O=CN1CCN(C=S)CC1`, for which the TGI in [1], in [2], in [3], in test [4], in [5] and in test [6] was over 100 µM each time. Besides, the TGI in test [7], in [9] and in test [10] was over 100 µM each time.

With `CNC(=O)OCc1[nH]ccc2c(C)c3nc4ccc(OC)cc4c3cc12`, the TGI in test [1] is over 100 µM; in [2], 19 µM; in [3] it was 56 µM; in test [4], over 100 µM; in test [5] it was over 23.9 µM; in [6], over 100 µM. Besides, the TGI in test [7] is over 26.9 µM; in [9], 30.7 µM; in [10], over 100 µM.

Regarding `CCOC(=O)c1cnc2cc3cccccc3n2c1=O`, the TGI in [1], in [2], in [3], in test [4], in test [5] and in test [6] was over 100 µM in each case. Besides, the TGI in test [7], in test [9] and in test [10] was over 100 µM throughout.

With `COC(=O)C1=Cc2c(cc(OC)c(OC)c2OC)[C@H](c2ccc(OC)c(OC)c2OC)C1C(=O)OC` (stereo not given in full), the TGI in test [1], in test [2], in test [3], in [4], in test [5] and in test [6] was over 100 µM each time. In addition, the TGI in test [7], in test [9] and in test [10] was over 100 µM throughout.

As to `COc1ccc(-c2ccccc2)cc1-c1c(Nc2cc(Cl)cc(Cl)c2O)c(=O)c1=O`, the GI50 in [1] was 1.76 µM; in [2], 1.11 µM; in test [3], 1.56 µM; in [4], 1.65 µM; in test [5] it was 1.53 µM; in [6], 1.51 µM. The GI50 in test [7] is 1.7 µM; in test [9], 0.726 µM; in test [10], 1.26 µM. Also, the TGI in test [1] was over 50 µM; in [2], 2.54 µM; in test [3], over 50 µM; in test [4] it was over 50 µM; in test [5], over 50 µM; in test [6] it was over 50 µM. The TGI in test [7] is over 50 µM; in test [9], 2.2 µM; in test [10], 3.69 µM.

As for `CC1CC2(CCC1OCc1ccccc1)OCCO2` (stereo not given), the TGI in test [1], in test [2], in test [3], in test [4], in test [5] and in test [6] was over 100 µM in each case. The TGI in test [7], in [9] and in [10] was over 100 µM each time.

On to `COc1ccc(-c2csc3c2-n2cccc2C3=O)cc1O`, for which the GI50 in test [1] is 0.824 µM; in test [2], 0.0163 µM; in test [3], 0.0578 µM; in [4], 0.112 µM; in [5] it was 0.0653 µM; in [7], under 0.0122 µM. The figures for the GI50 in test [8], in [9] and in [10] were under 0.01 µM, 1.13 µM and 0.5 µM, respectively. The TGI in test [1] is over 47.3 µM; in [2] it was 0.0955 µM; in [3], over 100 µM; in [4], over 91.5 µM; in test [5] it was over 100 µM; in test [7], over 100 µM. The TGI in [8] is 0.0102 µM; in [9], 13.5 µM; in [10] it was over 100 µM.

Take `COc1ccc(-c2nc3sc4c(c3c(=O)[nH]2)CCCC4)c2ccccc12`: the TGI in test [1] was over 100 µM; in test [2], 2.04 µM; in test [5], over 100 µM; in test [7], over 100 µM; in [9] it was 0.765 µM and 0.0871 µM; in test [10], 1.2 µM. In addition, the GI50 was 0.301 µM in [2]; 0.629 µM in [3]; 0.42 µM in test [4]; 1.8 µM in test [6]; 0.314 µM in test [10].

Take `O=C(O)c1ccc(C2C3C=CC(C3)C2[N+](=O)[O-])cc1` (stereo not given): the TGI in test [1], in test [2], in test [3], in [4], in [5] and in [6] was over 100 µM throughout. Besides, the TGI in test [7], in [9] and in test [10] was over 100 µM each time.

On to `O=[N+]([O-])c1cccc(-c2cc(-c3cc(Br)ccc3O)[nH]n2)c1`, for which the GI50 in test [1] is 2.27 µM; in test [2], 1.15 µM; in test [4], 2.42 µM; in test [5], 2.13 µM; in [6] it was 2 µM; in test [7], 2.81 µM. Further, the GI50 is 1.77 µM in test [8] and 1.86 µM in [9]. Further, the TGI in [1] worked out at 7.06 µM; in [2], 3.45 µM; in test [4], 6.68 µM; in [5] it was 6 µM; in test [6], 7.91 µM; in [7] it was 12.3 µM. The figures for the TGI in test [8] and in test [9] were 4.58 µM and 8.63 µM, respectively.

On to `Cc1cc(C)c2c(N)c3cccc(C)c3nc2n1`, for which the GI50 was 3.17 µM in test [1]; 3.67 µM in test [2]; 1.81 µM in test [3]; 3.32 µM in [5]; 3.17 µM in test [6]; 1.94 µM in [7]. Besides, the GI50 was 2.26 µM in test [8], 1.48 µM in [9] and 1.44 µM in test [10]. The TGI in test [1] is over 100 µM; in [2], 16.4 µM; in test [3] it was 5.03 µM; in test [5], 9.69 µM; in test [6] it was 33.5 µM; in test [7], 9.29 µM. Besides, the TGI stood at 8.62 µM in test [8], 3.11 µM in [9] and 8.07 µM in [10].

For the compound `NC(=O)c1c2c(cc3c(=O)c4ccccc4[nH]c13)CCCC2`, the TGI in test [1], in test [2], in [3], in [4], in test [5] and in [6] was over 100 µM throughout. For the same compound, the TGI in [7], in test [9] and in [10] was over 100 µM each time.

With `CN(C)CCNC(=O)c1nc([N+](=O)[O-])cn1C`, the TGI in test [1], in [2], in [3], in test [4], in test [5] and in test [7] was over 100 µM in each case. In addition, the TGI in [8], in test [9] and in test [10] was over 100 µM in each case.

Take `Cc1ccc(Oc2nc3ccccc3cc2-c2nnc(Cn3c(COc4ccccc4)nc4ccccc43)o2)cc1`: the GI50 in test [1] is 3.25 µM; in [2], 2.85 µM; in [3], 2.98 µM; in [4], 8.5 µM; in test [5] it was 2.85 µM; in [7], 1.08 µM. Moreover, the GI50 in [8] is 3.06 µM; in test [9], 0.409 µM; in test [10], 3.48 µM. Further, the TGI turned out to be 22 µM in test [1]; 7.88 µM in test [2]; 13 µM in test [3]; 24.2 µM in [4]; 11.8 µM in [5]; 4.79 µM in test [7]. Further, the TGI in test [8] was found to be 11.9 µM; in test [9], 18.7 µM; in test [10], 14.1 µM.
